Columns and labels:
[1] = tested on: IFN-α; test: Cytokine induction in human cells (PBMC): IFN-α secreted into culture media, ELISA; assay type: cell-based; conditions: Table 4, 18 to 24 hours, 30-0.014 μM, lowest concentration inducing over 20 pg/mL, median where several experiments, read-out: Minimum Effective Concentration IFN
Description: (§1) An in vitro human blood cell system is used to assess cytokine induction. Activity is based on the measurement of interferon (α) and tumor necrosis factor (α) (IFN-α, and TNF-α, respectively) secreted into culture media as described by Testerman et. al. in “Cytokine Induction by the Immunomodulators Imiquimod and S-27609”, Journal of Leukocyte Biology, 58, 365-372 (September, 1995).
(§2) Whole blood from healthy human donors is collected by venipuncture into vacutainer tubes or syringes containing EDTA. Peripheral blood mononuclear cells (PBMC) are separated from whole blood by density gradient centrifugation using HISTOPAQUE-1077 (Sigma, St. Louis, Mo.) or Ficoll-Paque Plus (Amersham Biosciences Piscataway, N.J.). Blood is diluted 1:1 with Dulbecco's Phosphate Buffered Saline (DPBS) or Hank's Balanced Salts Solution (HBSS). Alternately, whole blood is placed in Accuspin (Sigma) or LeucoSep (Greiner Bio-One, Inc., Longwood Fla.) centrifuge frit tubes containing density gradient medium. The PBMC layer is collected and washed twice with DPBS or HBSS and re-suspended at 4×10^6 cells/mL in RPMI complete. The PBMC suspension is added to 96 well flat bottom sterile tissue culture plates containing an equal volume of RPMI complete media containing test compound.
(§3) The compounds are solubilized in dimethyl sulfoxide (DMSO). The DMSO concentration should not exceed a final concentration of 1% for addition to the culture wells. The compounds are generally tested at concentrations ranging from 30-0.014 μM. Controls include cell samples with media only, cell samples with DMSO only (no compound), and cell samples with reference compound.
(§4) The solution of test compound is added at 60 μM to the first well containing RPMI complete and serial 3 fold dilutions are made in the wells. The PBMC suspension is then added to the wells in an equal volume, bringing the test compound concentrations to the desired range (usually 30-0.014 μM). The final concentration of PBMC suspension is 2×10^6 cells/mL. The plates are covered with sterile plastic lids, mixed gently and then incubated for 18 to 24 hours at 37° C. in a 5% carbon dioxide atmosphere.
(§5) Following incubation the plates are centrifuged for 10 minutes at 1000 rpm (approximately 200×g) at 4° C. The cell-free culture supernatant is removed and transferred to sterile polypropylene tubes. Samples are maintained at −30 to −70° C. until analysis. The samples are analyzed for IFN-α by ELISA and for TNF-α by IGEN/BioVeris Assay.
IFN-α concentration is determined with a human multi-subtype colorimetric sandwich ELISA (Catalog Number 41105) from PBL Biomedical Laboratories, Piscataway, N.J. Results are expressed in pg/mL.
Analysis of the data has two steps. First, the greater of the mean DMSO (DMSO control wells) or the experimental background (usually 20 pg/mL for IFN-α and 40 pg/mL for TNF-α) is subtracted from each reading. If any negative values result from background subtraction, the reading is reported as “*” and is noted as not reliably detectable. In subsequent calculations and statistics, “*” is treated as a zero. Second, all, background subtracted values are multiplied by a single adjustment ratio to decrease experiment to experiment variability. The adjustment ratio is the area of the reference compound in the new experiment divided by the expected area of the reference compound based on the past 61 experiments (unadjusted readings). […] The reference compound used is 2-[4-amino-2-ethoxymethyl-6,7,8,9-tetrahydro-α,α-dimethyl-1H-imidazo[4,5-c]quinolin-1-yl]ethanol hydrate (U.S. Pat. No. 5,352,784; Example 91) and the expected area is the sum of the median dose values from the past 61 experiments.
The minimum effective concentration is calculated based on the background-subtracted, reference-adjusted results for a given experiment and compound. […]

[2] = tested on: TNF-α; test: Cytokine induction in human cells (PBMC): TNF-α secreted into culture media, ORIGEN M-Series immunoassay; assay type: cell-based; conditions: median where several experiments; for minimal effective concentration: Table 4, 18 to 24 hours, 30-0.014 μM, lowest concentration inducing over 40 pg/mL, read-out: Minimum Effective Concentration TNF
Description: as §1, §2, §3, §4, §5
The TNF-α concentration is determined by ORIGEN M-Series Immunoassay and read on an IGEN M-8 analyzer from BioVeris Corporation, formerly known as IGEN International, Gaithersburg, Md. The immunoassay uses a human TNF-α capture and detection antibody pair (Catalog Numbers AHC3419 and AHC3712) from Biosource International, Camarillo, Calif. Results are expressed in pg/mL.
Analysis of the data has two steps. First, the greater of the mean DMSO (DMSO control wells) or the experimental background (usually 20 pg/mL for IFN-α and 40 pg/mL for TNF-α) is subtracted from each reading. If any negative values result from background subtraction, the reading is reported as “*” and is noted as not reliably detectable. In subsequent calculations and statistics, “*” is treated as a zero. Second, all, background subtracted values are multiplied by a single adjustment ratio to decrease experiment to experiment variability. The adjustment ratio is the area of the reference compound in the new experiment divided by the expected area of the reference compound based on the past 61 experiments (unadjusted readings). […] The reference compound used is 2-[4-amino-2-ethoxymethyl-6,7,8,9-tetrahydro-α,α-dimethyl-1H-imidazo[4,5-c]quinolin-1-yl]ethanol hydrate (U.S. Pat. No. 5,352,784; Example 91) and the expected area is the sum of the median dose values from the past 61 experiments. […]

melting point [°C]	SMILES	minimal effective concentration [1] [µM]	minimal effective concentration [2] [µM]	Maximal Response TNF ([2]; Table 4, background-subtracted, reference-adjusted, * = below background)
230 to 232	CC(C)(Cn1c(CO)nc2c(N)nc3cccnc3c21)NC(=O)C1CCCCC1 [Example 1, N-[2-(4-Amino-2-hydroxymethyl-1H-imidazo[4,5-c][1,5]naphthyridin-1-yl)-1,1-dimethylethyl]cyclohexanecarboxamide]	1.11	10	
239 to 242	CS(=O)(=O)NCCn1c(CO)nc2c(N)nc3cccnc3c21 [Example 4, N-[2-(4-Amino-2-hydroxymethyl-1H-imidazo[4,5-c][1,5]naphthyridin-1-yl)ethyl]methanesulfonamide]	10	> 30	* (Below the experimental background of 40 pg/mL)
210 to 211	CCOCc1nc2c(N)nc3cccnc3c2n1CC(C)(C)NC(=O)C1CCCCC1 [Analog 6, N-[2-(4-amino-2-ethoxymethyl-1H-imidazo[4,5-c][1,5]naphthyridin-1-yl)-1,1-dimethylethyl]cyclohexanecarboxamide]	0.014	0.014	

Source: patent US8343993B2, “Hydroxyalkyl substituted imidazonaphthyridines” (3M Innovative Properties Company, priority 2005, dated 2013)
